Experiments:
[1] = test system: SAD1 - Cultivar KY 160 genetically engineered to express a synthetic gene for tolerance to phenoxy herbicides; test: Yield assay, 2,4-D sprayed on transgenic SAD1 tobacco; assay type: in vivo, Nicotiana tabacum; conditions: for Plant Yield / Percent Leaf Yield / Corrected Leaf Yield / Corrected Plant Yield / Leaf Yield: SAD1 tobacco, isooctyl ester formulation; for Plant Yield / Corrected Leaf Yield / Corrected Plant Yield / Leaf Yield: dry matter 21 days after spraying; for Percent Leaf Yield: 21 days after spraying
Method: The use of exogenously supplied synthetic auxins on agronomic crops to elicit direct non-herbicidal effects, with an emphasis on the potential enhancement of yield, was assessed using genetically-engineered (GE) tobacco plant lines expressing synthetic auxin metabolizing genes. Non-GE controls were used, permitting separation of the herbicidal and biological properties of the exogenously supplied synthetic auxins. Tobacco was utilized to model dry matter yield.
The research was conducted in a single phase entailing characterization of response variables when plants were subjected to maximum (1× rate=1 pound/acre of active ingredient) and low (¼×=4 ounces/acre of active ingredient) rates of exogenously applied 2,4-dichlorophenoxyacetic acid (2,4-D). GE lines of tobacco (dark fired cultivar “KY 160”) expressing a synthetic gene for auxin metabolism (SAD1 or SAD2) were used, along with non-GE lines of the same genotype as control material. Commercial tobacco production has long utilized decapitation (“topping”) to initiate a predictable increase in leaf weight, thickness, and dry matter yield. This yield increase is dependent upon variables, such as genotype and fertility. By utilizing controls of the same genotype and a fixed level of fertility, significant yield variation responses should be attributable to the treatment (exogenous auxin herbicide application).
The overall experimental design was comprised of three parallel completely randomized designs with spray rate and genotype as the main factors. Three replications were performed for each treatment within each experiment. Each replication was the average measurement of six plants. The tobacco lines were allowed to advance to the 6-8 leaf stage. Upon reaching this stage, the primary meristem was removed along with lower leaves so that only 4 leaves remained. Plants were then sprayed with herbicide and permitted to grow for an additional 21 days. At the end of this period, dry matter yields for both leaf and the whole plant were measured.
Yield data recorded for tobacco were leaf dry matter, leaf number, and total dry matter. Corrected plant yield and corrected leaf yield were calculated for each replication as the leaf dry matter divided by leaf number then multiplied by the expected number of leaves (6 plants×4 leaves=24). This corrected leaf yield was then added to stem yield fraction (arrived at by subtracting actual leaf yield from total plant yield) to create a corrected total plant yield. All tobacco yield measurements were recorded in grams after a 7-day drying period in ambient air dryers.
Seed of non-transgenic tobacco lines were germinated on MS03 (MS salts, B5 vitamins, 3% sucrose) medium. Transgenic seeds were germinated on the same medium augmented with 300 mg/L kanamycin monosulfate to allow detection of any seedlings failing to carry the transgene. Thirty days after germination, seedlings were transplanted to the greenhouse into flats holding 8 trays of 6 plants each for a total of 48 plants. Plants were permitted to grow for approximately 45 days, at which time 6-8 leaves had developed. Prior to spraying, the top of the plant retaining the uppermost two leaves was removed (decapitated) resulting in the retention of 4 fully-extended leaves for each plant.
For spray assays and for the yield studies, spraying was performed in an Allen Machine Works Spray Cabinet. Spray rates were established as the equivalent of 16 ounces of active ingredient per acre (1× rate), 4 ounces active ingredient/acre (¼× rate), and the control (no active ingredient per acre or 0×). The herbicide used was 2,4-D, isooctyl ester formulation (3.9 pounds of active ingredient/gallon) at equivalent rates noted above. To achieve this equivalent 1× field rate, 500 microliters of herbicide were diluted into a total volume of 50 ml. The ¼× field rate was achieved by diluting 125 microliters of herbicide in a 50 ml volume. […]

[2] = test system: tomato genotype UC82L (control); test: Fruit yield assay, 2,4-D sprayed on non-transgenic tomato; assay type: in vivo, Lycopersicon esculentum; conditions: for Total Yield (Fresh Fruit Yield) / Fruit Weight (Average Fresh Fruit Weight) / Total Flowers / Fruit per Plant / Total Fruit No.: UC82L; for Total Yield (Fresh Fruit Yield): harvested over 60 days; for Fruit Weight (Average Fresh Fruit Weight) / Total Flowers / Fruit per Plant / Total Fruit No.: 60 days; for Total Flowers: Flower Number/plant/replication/treatment; for Fruit per Plant: Fruit Number/plant/replication/treatment; for Total Fruit No.: Total Fruit Number/replication/treatment
Text: (§1) The use of exogenously supplied synthetic auxins on agronomic crops to elicit direct non-herbicidal effects was further assessed using genetically-engineered tomato plant lines expressing a synthetic auxin metabolizing gene, and non-genetically-engineered controls. Tomato was utilized to model fruit retention (fruit set) and fruit yield. The transgenic tomato line was utilized in the T2 generation with the transgene fixed in a homozygous fashion. The tomato genotype UC82L was utilized as the control, as well as the background for tranformation with the pPZP211-PNPT-311-SAD2 binary plasmid. This genotype was chosen because it is more likely to closely approximate the behavior of field-grown tomatoes than some short-life-cycle laboratory strains of tomato.
(§2) In the same manner as for tobacco, the research was conducted in a single phase entailing characterization of response variables when plants were subjected to the maximum (1× rate=1 pound/acre of active ingredient) and low (¼×=4 ounces/acre of active ingredient) rates of exogenously applied 2,4-D. The overall experimental design was comprised of three parallel completely randomized designs with spray rate and genotype as the main factors. Three replications were performed for each treatment within each experiment. Each replication was the average of three plants that were harvested over a period of 60 days. Fruit number, fruit weight and flower number were measured directly, with average fruit weight and average fruit per plant being derived by dividing fruit weight and fruit number within a replication by the number of plants (3). Tomato fruit yield was measured on fresh fruit and recorded in grams.
(§3) Non-transgenic and transgenic seed were germinated and grown as described in Example 1 for tobacco. The transgenic tomato line was utilized in the T2 generation with the transgene fixed in a homozygous fashion.
(§4) The plants with 4 fully-extended leaves retained were sprayed as described in Example 1. Each replication (3 plants) was sprayed independently and permitted to dry before being moved back to the greenhouse for further growth for 60 days.
(§5) Fruit number, fruit weight, and flower number were measured directly during this 60-day period. Tomato fruit yield was measured on fresh fruit and recorded in grams.

[3] = test system: SAD2 - Cultivar UC82B genetically engineered to express a synthetic gene for tolerance to phenoxy herbicides; test: Fruit yield assay, 2,4-D sprayed on transgenic SAD2 tomato; assay type: in vivo, Lycopersicon esculentum; conditions: for Total Yield (Fresh Fruit Yield) / Fruit Weight (Average Fresh Fruit Weight) / Total Flowers / Fruit per Plant / Total Fruit No.: SAD2 tomato; for Total Yield (Fresh Fruit Yield): harvested over 60 days; for Fruit Weight (Average Fresh Fruit Weight) / Total Flowers / Fruit per Plant / Total Fruit No.: 60 days; for Total Flowers: Flower Number/plant/replication/treatment; for Fruit per Plant: Fruit Number/plant/replication/treatment; for Total Fruit No.: Total Fruit Number/replication/treatment
Text: as §1, §2
The binary plasmid pPZP211-PNPT-311-SAD2 used for transformation was the same as that used in Example 1, and tomato (Lycopersicon esculentum) cultivar UC82B (a cultivar nearly identical to UC82L) was transformed by Agrobacterium-mediated transformation of leaf tissue with the binary plasmid as described in Example 1. Transgenic plants were produced from the transformed leaf tissue as described in Example 1.
as §3, §4, §5

[4] = spray rate 1X (1 pound active ingredient/acre), 2,4-D isooctyl ester formulation
[5] = spray rate ¼X (4 ounces active ingredient/acre), 2,4-D isooctyl ester formulation

SMILES: O=C(O)COc1ccc(Cl)cc1Cl [2,4-D, 2,4-dichlorophenoxyacetic acid]
- Plant Yield ([1]; 2,4-D rate 1X (1 pound active ingredient/acre)): 42.5 grams/plant/replication/treatment
- Percent Leaf Yield ([1]; 2,4-D rate 1X): 44.7%
- Corrected Leaf Yield ([1]; 2,4-D rate 1X): 19.1 grams/plant/replication/treatment
- Corrected Plant Yield ([1]; 2,4-D rate 1X): 42.7 grams/plant/replication/treatment
- Leaf Yield ([1]; 2,4-D rate 1X): 18.8 grams/plant/replication/treatment
- Plant Yield ([1]; 2,4-D rate ¼X (4 ounces active ingredient/acre)): 43.5 grams/plant/replication/treatment
- Percent Leaf Yield ([1]; 2,4-D rate ¼X): 40.5%
- Corrected Leaf Yield ([1]; 2,4-D rate ¼X): 17.8 grams/plant/replication/treatment
- Corrected Plant Yield ([1]; 2,4-D rate ¼X): 43.9 grams/plant/replication/treatment
- Leaf Yield ([1]; 2,4-D rate ¼X): 17.4 grams/plant/replication/treatment
- effect on yield ([1]; transgenic material (SAD1) sprayed with either the ¼× or 1× rate): significant increase in yield
- Total Yield (Fresh Fruit Yield) [2, 4]: 35.3 grams/plant/replication/treatmen
- Fruit Weight (Average Fresh Fruit Weight) ([2]; spray rate 1X): 14.1 grams/fruit/plant/replication/treatment
- Total Flowers ([2]; spray rate 1X): 4.3
- Fruit per Plant ([2]; spray rate 1X): 0.6
- Total Fruit No. ([2]; spray rate 1X): 2.3
- Total Yield (Fresh Fruit Yield) [2, 5]: 66.1 grams/plant/replication/treatmen
- Fruit Weight (Average Fresh Fruit Weight) ([2]; spray rate ¼X): 26.0 grams/fruit/plant/replication/treatment
- Total Flowers ([2]; spray rate ¼X): 6.0
- Fruit per Plant ([2]; spray rate ¼X): 0.8
- Total Fruit No. ([2]; spray rate ¼X): 3.0
- effect on average fruit weight ([2]; control line, ¼× rate): increase in average fruit weight
- effect on total flower number ([2]; control material, ¼× rate): reducing the number of flowers
- Total Yield (Fresh Fruit Yield) [3, 4]: 131.9 grams/plant/replication/treatmen
- Fruit Weight (Average Fresh Fruit Weight) ([3]; spray rate 1X): 13.7 grams/fruit/plant/replication/treatment
- Total Flowers ([3]; spray rate 1X): 19.7
- Fruit per Plant ([3]; spray rate 1X): 2.4
- Total Fruit No. ([3]; spray rate 1X): 9.7
- Total Yield (Fresh Fruit Yield) [3, 5]: 122.9 grams/plant/replication/treatmen
- Fruit Weight (Average Fresh Fruit Weight) ([3]; spray rate ¼X): 14.4 grams/fruit/plant/replication/treatment
- Total Flowers ([3]; spray rate ¼X): 17.3
- Fruit per Plant ([3]; spray rate ¼X): 2.2
- Total Fruit No. ([3]; spray rate ¼X): 8.7
- effect on average fruit weight ([3]; transgenic line, ¼× rate): increase in average fruit weight
- effect on total flower number ([3]; transgenic lines, ¼× rate): increasing the number of flowers
